Like-named read-outs stand apart in the source and are kept apart here.
Legend:
[1] = test system: PC3 cells; assay: PC3 growth inhibition (Cell-titer glo, 72 hours); assay type: cell-based; conditions: Homo sapiens, read-out: Percent Inhibition (PC3 growth inhibition); for inhibition at 1.667 µM: compound concentration 1.667 μM
Method in brief: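 PC3 cells in RPMI1640 seeded overnight at 37 °C, 5% CO2, then exposed to compound diluted in AIM serum-free medium for 72 h. Viability by CellTiter-Glo luminescence vs DMSO controls; single-concentration % remaining viability (1 μM or 1.667 μM), or GI50/LD50 from curves.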

[2] = biological target: hNAMPT protein (Homo sapiens (Human), UniProt P43490); assay: NAMPT enzyme assay (TR-FRET/HTRF, BodiPY ligand, anti 6His-Tb); assay type: binding; conditions: for inhibition at 1 µM: read-out: Percent Inhibition
Method in brief: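 TR-FRET binding assay in which His-tagged human NAMPT with anti-6His-Tb is displaced by compound from a BodiPY ligand, incubated 1 h at rt in the dark. Excitation was at 320 nm, with the 520/486 nm emission ratio read. IC50 was fitted from inhibition relative to DMSO controls.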

[3] = PC-3, compound concentration 1 μM, PC3 cells, 72 hours, Cell-titer glo
[4] = NAMPT IC50 range class, read-out: IC50
[5] = PC-3, PC3 cells, 72 hours, Cell-titer glo

hNAMPT protein, sequence (P43490 whole entry): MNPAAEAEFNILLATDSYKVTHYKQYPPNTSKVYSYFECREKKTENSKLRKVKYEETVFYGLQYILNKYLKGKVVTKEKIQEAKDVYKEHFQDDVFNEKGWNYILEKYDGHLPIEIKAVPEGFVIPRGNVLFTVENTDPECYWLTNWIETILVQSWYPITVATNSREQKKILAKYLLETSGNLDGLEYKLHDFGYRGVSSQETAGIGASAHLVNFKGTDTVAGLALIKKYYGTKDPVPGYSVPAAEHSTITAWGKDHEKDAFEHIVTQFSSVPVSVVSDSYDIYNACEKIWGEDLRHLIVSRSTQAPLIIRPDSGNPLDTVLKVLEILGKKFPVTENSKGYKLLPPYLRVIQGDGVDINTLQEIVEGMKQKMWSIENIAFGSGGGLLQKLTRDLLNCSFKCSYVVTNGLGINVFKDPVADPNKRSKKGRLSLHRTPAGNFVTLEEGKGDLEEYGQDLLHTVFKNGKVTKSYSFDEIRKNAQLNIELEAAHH

SMILES	inhibition at 1 µM [1, 3] [%]	IC50 [2, 4] [nM]	inhibition at 1 µM ([2]; compound concentration 1 μM) [%]	inhibition at 1.667 µM [1, 5] [%]	inhibition at 1 µM [2] [%]	inhibition at 1 µM ([1]; PC-3, 72 h) [%]	IC50 [2] [nM]
O=C(NCCCn1ccnc1)c1ccc2nc(N3CCC(N4CCC(O)CC4)CC3)c(-c3ccccc3)nc2c1 [Compound I-210, 2-(4-hydroxy-1,4′-bipiperidin-1′-yl)-N-[3-(1H-imidazol-1-yl)propyl]-3-phenylquinoxaline-6-carboxamide]	-2	< 100	95	–	–	–	–
O=C(NCCCc1ncc[nH]1)c1ccc2nc(Cl)c(-c3ccc(F)cc3)nc2c1 [Compound I-211, 2-Chloro-3-(4-fluorophenyl)-N-[3-(1H-imidazol-2-yl)propyl]quinoxaline-6-carboxamide]	–	100 to 500	79	> 99	–	–	–
O=C(NCCc1ccncc1)c1ccc2nc(-c3ccc(F)cc3)c(-c3ccc(F)cc3)nc2c1 [Compound I-212, 2,3-bis(4-fluorophenyl)-N-[2-(pyridin-4-yl)ethyl]quinoxaline-6-carboxamide]	101	< 100	95	–	–	–	–
O=C(NCCCc1ncc[nH]1)c1ccc2nc(N3CCC(O)CC3)c(-c3ccc(F)cc3)nc2c1 [Compound I-213, 3-(4-fluorophenyl)-2-(4-hydroxypiperidin-1-yl)-N-[3-(1H-imidazol-2-yl)propyl]quinoxaline-6-carboxamide]	–	< 100	99	2	–	–	–
Cc1ccc(-c2nc3ccc(C(=O)NCCCn4ccnc4)cc3nc2-c2ccc(C)cc2)cc1 [Compound I-214, N-[3-(1H-imidazol-1-yl)propyl]-2,3-bis(4-methylphenyl)quinoxaline-6-carboxamide]	0	1000 to 2000	40	–	–	–	–
Cn1ccc(-c2nc3cc(C(=O)NCCCn4ccnc4)ccc3nc2-c2ccccc2)n1 [Compound I-215, N-[3-(1H-imidazol-1-yl)propyl]-3-(1-methyl-1H-pyrazol-3-yl)-2-phenylquinoxaline-6-carboxamide]	19	2000 to 10000	15	–	–	–	–
O=C(NCCCc1ncc[nH]1)c1ccc2nc(OC3CCCCC3)c(-c3ccc(Cl)cc3)nc2c1 [Compound I-216, 3-(4-chlorophenyl)-2-(cyclohexyloxy)-N-[3-(1H-imidazol-2-yl)propyl]quinoxaline-6-carboxamide]	–	< 100	91	3	–	–	–
CC(C)(C)OC(=O)NCc1ccccc1-c1nc2cc(C(=O)NCCCn3ccnc3)ccc2nc1-c1ccccc1 [Compound I-217, tert-butyl[2-(7-{[3-(1H-imidazol-1-yl)propyl]carbamoyl}-3-phenylquinoxalin-2-yl)benzyl]carbamate]	95	2000 to 10000	26	–	–	–	–
COc1cccc(-c2nc3cc(C(=O)NCCCn4ccnc4)ccc3nc2-c2ccccc2)c1 [Compound I-218, N-[3-(1H-imidazol-1-yl)propyl]-3-(3-methoxyphenyl)-2-phenylquinoxaline-6-carboxamide]	0	< 100	100	–	–	–	–
N#Cc1cccc(-c2nc3ccc(C(=O)NCCCn4ccnc4)cc3nc2-c2ccccc2)c1 [Compound I-219, 2-(3-cyanophenyl)-N-[3-(1H-imidazol-1-yl)propyl]-3-phenylquinoxaline-6-carboxamide]	-7	100 to 500	74	–	–	–	–
O=C(NCc1ccc2[nH]ncc2c1)c1ccc2nc(N3CCCCC3)c(-c3ccc(F)cc3)nc2c1 [Compound I-220, 3-(4-Fluorophenyl)-N-(1H-indazol-5-ylmethyl)-2-(piperidin-1-yl)quinoxaline-6-carboxamide]	–	100 to 500	–	4	68	–	–
O=C(NCCOc1cccnc1)c1ccc2nc(N3CCC(N4CCOCC4)CC3)c(-c3ccc(F)cc3)nc2c1 [Compound I-221, 3-(4-fluorophenyl)-2-[4-(morpholin-4-yl)piperidin-1-yl]-N-[2-(pyridin-3-yloxy)ethyl]quinoxaline-6-carboxamide]	–	< 100	> 99	2	–	–	–
CC(C)Oc1nc2ccc(C(=O)NCCCc3ncc[nH]3)cc2nc1-c1ccc(Cl)cc1 [Compound I-222, 3-(4-chlorophenyl)-N-[3-(1H-imidazol-2-yl)propyl]-2-isopropoxyquinoxaline-6-carboxamide]	–	< 100	92	12	–	–	–
CC(=O)Nc1ccc(-c2nc3cc(C(=O)NCCCn4ccnc4)ccc3nc2-c2ccccc2)cc1 [Compound I-223, 3-(4-acetamidophenyl)-N-[3-(1H-imidazol-1-yl)propyl]-2-phenylquinoxaline-6-carboxamide]	103	2000 to 10000	10	–	–	–	–
O=C(NCCCn1ccnc1)c1ccc2nc(-c3ccccc3)c(-c3cccc(Cl)c3)nc2c1 [Compound I-224, 3-(3-chlorophenyl)-N-[3-(1H-imidazol-1-yl)propyl]-2-phenylquinoxaline-6-carboxamide]	1	100 to 500	74	–	–	–	–
O=C(c1ccc2nc(-c3ccc(F)cc3)c(-c3ccc(F)cc3)nc2c1)N1CCc2[nH]ncc2C1 [Compound I-225, [2,3-bis(4-fluorophenyl)quinoxalin-6-yl](1,4,6,7-tetrahydro-5H-pyrazolo[4,3-c]pyridin-5-yl)methanone]	91	2000 to 10000	14	–	–	–	–
COC1CCN(c2nc3ccc(C(=O)NCCCn4ccnc4)cc3nc2-c2ccccc2)C1 (stereo not drawn) [Compound I-226, N-[3-(1H-imidazol-1-yl)propyl]-2-(3-methoxypyrrolidin-1-yl)-3-phenylquinoxaline-6-carboxamide]	-7	100 to 500	70	–	–	–	–
O=C(NCCCn1ccnc1)c1ccc2nc(-c3ccccc3)c(-c3ccc4cc[nH]c4c3)nc2c1 [Compound I-227, N-[3-(1H-imidazol-1-yl)propyl]-3-(1H-indol-6-yl)-2-phenylquinoxaline-6-carboxamide]	1	500 to 1000	68	–	–	–	–
CCOc1cccc(-c2nc3ccc(C(=O)NCCCn4ccnc4)cc3nc2-c2ccccc2)c1 [Compound I-228, 2-(3-ethoxyphenyl)-N-[3-(1H-imidazol-1-yl)propyl]-3-phenylquinoxaline-6-carboxamide]	-8	100 to 500	80	–	–	–	–
O=C(NCCCc1ccncc1)c1ccc2nc(-c3ccc(F)cc3)c(-c3ccc(F)cc3)nc2c1 [Compound I-229, 2,3-bis(4-fluorophenyl)-N-[3-(pyridin-4-yl)propyl]quinoxaline-6-carboxamide]	95	100 to 500	73	–	–	–	–
O=C(NCCCn1ccnc1)c1ccc2nc(C3=CCCC3)c(-c3ccccc3)nc2c1 [Compound I-230, 2-(cyclopent-1-en-1-yl)-N-[3-(1H-imidazol-1-yl)propyl]-3-phenylquinoxaline-6-carboxamide]	-7	500 to 1000	62	–	–	–	–
CC(C)(C)OC(=O)NCC1(O)CCN(C2CCN(c3nc4ccc(C(=O)NCCCn5ccnc5)cc4nc3-c3ccccc3)CC2)CC1 [Compound I-231, tert-Butyl {[4-hydroxy-1′-(6-{[3-(1H-imidazol-1-yl)propyl]carbamoyl}-3-phenylquinoxalin-2-yl)-1,4′-bipiperidin-4-yl]methyl}carbamate]	-2	< 100	95	–	–	–	–
O=C(NCCCc1ncc[nH]1)c1ccc2nc(N3CCCCC3)c(-c3ccc(F)cc3)nc2c1 [Compound I-232, 3-(4-fluorophenyl)-N-[3-(1H-imidazol-2-yl)propyl]-2-(piperidin-1-yl)quinoxaline-6-carboxamide]	–	< 100	> 99	2	–	–	–
O=C(NCCCn1ccnc1)c1ccc2nc(Nc3ccccc3)c(-c3ccccc3)nc2c1 [Compound I-233, 2-Anilino-N-[3-(1H-imidazol-1-yl)propyl]-3-phenylquinoxaline-6-carboxamide]	–	–	–	–	43	-8	2000 to 10000
Cn1ccnc1CCCNC(=O)c1ccc2nc(-c3ccc(F)cc3)c(-c3ccc(F)cc3)nc2c1 [Compound I-234, 2,3-bis(4-fluorophenyl)-N-[3-(1-methyl-1H-imidazol-2-yl)propyl]quinoxaline-6-carboxamide]	41	< 100	100	–	–	–	–
NC(=O)c1cccc(-c2nc3ccc(C(=O)NCCCn4ccnc4)cc3nc2-c2ccccc2)c1 [Compound I-235, 2-(3-carbamoylphenyl)-N-[3-(1H-imidazol-1-yl)propyl]-3-phenylquinoxaline-6-carboxamide]	-8	100 to 500	79	–	–	–	–
O=C(NCCCn1ccnc1)c1ccc2nc(-c3ccccc3)c(-c3cccs3)nc2c1 [Compound I-236, N-[3-(1H-imidazol-1-yl)propyl]-2-phenyl-3-(2-thienyl)quinoxaline-6-carboxamide]	1	< 100	99	–	–	–	–
O=C(NCCn1cncn1)c1ccc2nc(-c3ccc(F)cc3)c(-c3ccc(F)cc3)nc2c1 [Compound I-237, 2,3-bis(4-fluorophenyl)-N-[2-(1H-1,2,4-triazol-1-yl)ethyl]quinoxaline-6-carboxamide]	96	2000 to 10000	21	–	–	–	–

Source: patent publication US10144742B2 (Millennium Pharmaceuticals, Inc., priority 2014, dated 2018)
